How the values were obtained:
[1] = system: human tooth germ stem cells; details: FIG. 2
Method: During the freezing process, different from the standard protocol, 20 μg/ml NaB was added to the cell cryopreservation medium. The control group was incubated by a standard cryopreservation medium. During freezing of the cells, different amounts of Me2SO (10%, 7%, 5% and 3% Me2SO) were added to the medium which contained 20% FBS (Fetal Bovine Serum) and 1% PSA (penicillin streptomycin amphotericin) in addition to 20 μg/ml NaB. Except for the group which was frozen for an extended period (6 months), the other cells were subjected to 4 repeating freeze-thaw processes. During each freezing process, one million cells were placed into one freezing tube and were frozen to −80° C. by using a freezing tank. The freezing tubes were transferred to −196° C. liquid nitrogen vapor one day later. After each freezing process, the cells were rapidly molten in a 37° C. water bath and viability analyses were performed with trypan blue.

[2] = system: human tooth germ stem cells
Method: The intermediate concentrations to be applied on the cells were prepared in the cell culture medium and were applied on the human tooth germ stem cells.

[3] = system: human tooth germ stem cells; details: 20 μg/ml NaB + 5% Me2SO, thawed after long term freezing

sodium pentaborate pentahydrate [NaB]
toxic effect in cell viability analysis of frozen cells ([1]; 20 μg/ml NaB in the presence of 5% Me2SO, repeatedly frozen cells and cells stored long term (6 months)): decreased toxic effect
cell viability over repeated freeze-thaw processes ([1]; 20 μg/ml NaB, 5% Me2SO in cryopreservation medium): started to increase during and after the second freeze-thaw process
concentration at which toxic effect was observed [2]: ≥ 200 µg/mL
differentiation of the cells into chondrogenic lineage [3]: increase
differentiation of the cells into odontogenic lineage [3]: increase
stem cell differentiation into adipose tissue [3]: slight decrease
differentiation potentials of the cells (staining and immunocytochemistry analyses) ([3]; FIG. 3-4): no significant change

Source: patent publication US9943076B2, “Boron added cell cryopreservation medium” (YEDITEPE ÜNIVERSITESI, priority 2013, dated 2018)
